These results are taken from publication PMC8225959, “Clickable Radiocomplexes With Trivalent Radiometals for Cancer Theranostics: In vitro and in vivo Studies” (Frontiers in Medicine, 2021).

Read-outs that look alike come from different tables or passages of the source. Bounds are passed on as bounds.

Data set [1] can be described thus: Biodistribution of [111In]In-radiocomplexes in healthy mice. It counts as in vivo. The procedure:
We performed a biodistribution study of the four [^111In]In-radiocomplexes in healthy mice to determine the clearance rate from systemic blood circulation and the tissue/organ distribution over time. […] The urinary tract was identified as the main excretory pathway since the highest % I.D./g values were found in the kidneys for all the radiocomplexes, associated to rapid radioactivity excretion both at 15 min and 1 h p.i. […] page 9: from whole animal body. Blood samples were taken by cardiac puncture at sacrifice. […] The animals were kept under […] volume of approximate 390 ± 190 mm3. […] […] carried out on groups of 8 mice (n = 4). […] The animals were weighed and dissected.

Data set [2] is described as follows: In vivo stability: HPLC analysis of urine of injected mice. Particulars: mouse urine, 1 h p.i.
Protocol: To assess the in vivo stability of the radiocomplexes, samples of blood and urine were collected from the mice injected with the compounds and analyzed by HPLC.
(§1) Blood samples from mice injected with the tested radiocomplexes, collected at sacrifice time, were
(§2) centrifuged, the serum separated and treated with ethanol (1:2 proportion) to precipitate the proteins
(§3) and the supernatant was analyzed by HPLC for stability evaluation. The urine samples were centrifuged
(§4) at 3000 rpm for 10 min and the supernatant was also analyzed by HPLC.
A short description of another data set: in vivo. Particulars: male, NodCB17 SCID, mouse, iv, total radioactivity. The source says: from whole animal body. Blood samples were taken by cardiac puncture at sacrifice. Tissue samples of the main organs were then dissected, weighted and counted in a gamma counter (Berthold).
Biodistribution results were expressed as percentage of the injected dose per gram tissue (%I.D./g) in the form of an average with standard deviation (%ID/g; mean ± standard deviation (SD).
Biodistribution in PC3 bearing mice
Male, 5-6 weeks old NodCB17 SCID mice were obtained from Janvier Lab., France. Mice were housed under pathogen-free conditions with food and water ad libitum, and a 12-12 hour light-dark cycle.
Veterinarian staff and investigators observed the mice daily to ensure animal welfare and determine if human endpoints (e.g., hunched and ruffled appearance, apathy, ulceration, severe weight loss, tumour burden) were reached. The mice were subcutaneously injected in the shoulder with 200 µL bolus containing a suspension of […] freshly harvested human prostatic cell line PC3 in Matrigel™ Basement Membrane Matrix (BD Sciences) under anaesthesia with 2% isoflurane. The animals were kept under pathogen-free condition and experiments were performed 2–3 weeks later when a tumour reached a volume of approximate 390 ± 190 mm3. Animals were allocated into treatment groups using a complete […]
The examination of physiological distribution for [90Y]Y-DOTA-Tz were carried out on 4 mice (n = 4). For the control bolus, 0.061 nmol, 0.1 mL, 7.5 µCi of [90Y]Y-DOTA-Tz was intravenously injected by tail vein. The examination of physiological distribution for [90Y]Y-DOTA-Tz-TCO-PEG4-AR were carried out on groups of 8 mice (n = 4). For the control bolus, 0.061 nmo l, 0.1 mL, 7.5 µCi of 90Y-DOTA-Tz TCO-PEG4-AR was intravenously injected by tail vein. At appropriate time points (15 min, 1h or 2h after-injection), the animals were euthanized, tissues of interest were dissected, weighted, and their radioactivity was measured using NaI gamma counter supplied with adapter for the whole-body […]
Biodistribution of 111In-DOTA-Tz-TCO-PEG4-AR was performed by intravenous injection of 100 µL (50 – 75 µCi) of the preparation into mice (n =4) via the tail vein. Immediately after injection, radioactive dosage administered into each animal was measured in a dose calibrator (Capintec CRC25R). For the in vivo click chemistry studies in the same PC3 xenografts (n=3), a bolus of 1 nmol of TCO-PEG4-AR, dissolved in 0.1 mL of saline, was injected in the tail vein, and after 4h the [111In]In-DOTA-Tz (0.1mL, 50 – 75 µCi µCi). After 1 h of administration of the radioactive preparations, the mice groups were sacrificed by cervical dislocation and the radioactivity in the sacrificed animal was measured. The difference between the radioactivity in the injected and the sacrificed animal was assumed to be due to total excretion. The animals were weighed and dissected. Then, tissues of interest were removed, weighed and counted in a γ-counter (Berthold, LB211, Germany).
For all the performed biodistribution studies, selected organs and tissues were assayed for their radioactivity and weighted. The physiological distribution was then calculated and expressed in terms of the percentage of the administrated radioactivity found in each of the selected organs or tissues per gram (%ID/g) in the form of an average with standard deviation (%ID/g; mean ± standard deviation
(1 picture or pasted object on this page, not shown here)

The conditions of data set [3]: cell culture media, 37 °C, up to 24 hours.
Protocol: The in vitro stability of the radiocomplexes was studied by ITLC and HPLC analysis of aliquots of the
Culture Media and Human Serum a suitable volume of the radioactive complexes was diluted into 4
times the volume of the desired medium. The mixtures were incubated at 37 °C and aliquots were taken
at the different time points and analysed by HPLC and ITLC. The radiocomplexes incubated in Human
Serum were first treated with a four-times bigger volume of cold ethanol to induce protein precipitation.
After centrifugation during 10 minutes at 5000 rpm, the supernatants were separated from the pellets
as §1, §2, §3, §4
The in vitro stability of the radioconjugate [111In]-DOTA-Tz-TCO-PEG4-AR was evaluated by
incubation at 37 °C in cell culture media (CCM), in human serum (HS) and in PBS during 24 hours.
Data set [4] can be described thus: Lipophilicity, octanol-water partition coefficient by shake-flask method. In kind it is physicochemical. The following applies: 1-octanol / PBS pH 7.4. As for the experimental part: Given the limited effect of the pegylated linker on the plasmatic half-life, we focused our successive in vitro stability studies and lipophilicity measurements on the two non-pegylated derivatives [^111In]In-DOTA-Tz and [^111In]In-DOTAGA-Tz. The lipophilicity was evaluated by determination of their partition coefficient log Po/w using the shake-flask method. […] In HS the stability was very good up to 2 h of incubation, but after 4 h of incubation, the degradation started to be quite important with 50 and 30% of the compound degraded for [^111In]In-DOTA-Tz and [^111In]In-DOTAGA-Tz, respectively. […] Taken together, excellent stability of the two [^111In]In-radiocomplexes was observed both in CCM and HS at 37°C for incubation times up to 2 h. […]
Lipophilicity Determination
After phase separation, aliquots

Data set [5] can be described thus: In vitro stability of [111In]In-radiocomplexes in cell culture media, human serum and PBS at 37 °C (HPLC). In kind it is in vitro ADME. The procedure: Given the limited effect of the pegylated linker on the plasmatic half-life, we focused our successive in vitro stability studies and lipophilicity measurements on the two non-pegylated derivatives [^111In]In-DOTA-Tz and [^111In]In-DOTAGA-Tz. The lipophilicity was evaluated by determination of their partition coefficient log Po/w using the shake-flask method. […] In HS the stability was very good up to 2 h of incubation, but after 4 h of incubation, the degradation started to be quite important with 50 and 30% of the compound degraded for [^111In]In-DOTA-Tz and [^111In]In-DOTAGA-Tz, respectively. […] Taken together, excellent stability of the two [^111In]In-radiocomplexes was observed both in CCM and HS at 37°C for incubation times up to 2 h.
[111In]In-Radiocomplexes: In vitro and in vivo stability
radiolabelled compound dissolved in different media. For the evaluation of the stability in PBS, Cell
times the volume of the desired medium.
The radiocomplexes incubated in Human
The urine samples were centrifuged
during six days by ITLC analysis.

`O=C([O-])CN1CCN(CC(=O)[O-])CCN(CC(=O)NCCOCCOCCOCCOCCOCCOCCOCCOCCOCCOCCOCCNC(=O)CCCC(=O)NCc2ccc(-c3nncnn3)cc2)CCN(CC(=O)[O-])CC1.[111In+3]` [[111In]In-DOTA-PEG-Tz]: in data set [1] (15 min p.i.), the “Biodistribution: Blood” value came to 3.1 ± 0.4 % I.D./g, the “Biodistribution: Bone” value is 0.78 ± 0.08 % I.D./g, the “Biodistribution: Heart” value came to 1.0 ± 0.2 % I.D./g and the “Biodistribution: Intestine” value is 0.32 ± 0.05 % I.D./g. For the same compound, in data set [1] (15 min p.i.), the “Biodistribution: Kidney” value worked out at 5.8 ± 1.3 % I.D./g, the “Biodistribution: Liver” value was found to be 1.1 ± 0.2 % I.D./g, the “Biodistribution: Lung” value amounted to 1.6 ± 0.3 % I.D./g and the “Biodistribution: Muscle” value turned out to be 0.9 ± 0.2 % I.D./g. In data set [1] (15 min p.i.), the “Biodistribution: Pancreas” value was 0.53 ± 0.07 % I.D./g, the “Biodistribution: Spleen” value stood at 0.66 ± 0.28 % I.D./g, the “Biodistribution: Stomach” value turned out to be 0.5 ± 0.3 % I.D./g and the Excretion is reported as 65.3 ± 5.4 % I.D. In data set [1] (1 h p.i.), the “Biodistribution: Blood” value is listed as 0.44 ± 0.07 % I.D./g, the “Biodistribution: Bone” value came out at 0.11 ± 0.01 % I.D./g, the “Biodistribution: Heart” value came out at 0.15 ± 0.08 % I.D./g and the “Biodistribution: Intestine” value is on record as 0.05 ± 0.01 % I.D./g. For the same compound, in data set [1] (1 h p.i.), the “Biodistribution: Kidney” value came to 1.9 ± 0.3 % I.D./g, the “Biodistribution: Liver” value is on record as 0.70 ± 0.30 % I.D./g, the “Biodistribution: Lung” value stood at 0.36 ± 0.04 % I.D./g and the “Biodistribution: Muscle” value turned out to be 0.10 ± 0.02 % I.D./g. Moreover, in data set [1] (1 h p.i.), the “Biodistribution: Pancreas” value is reported as 0.09 ± 0.01 % I.D./g, the “Biodistribution: Spleen” value was 0.18 ± 0.04 % I.D./g, the “Biodistribution: Stomach” value was determined as 0.09 ± 0.02 % I.D./g and the Excretion was determined as 93.6 ± 0.8 % I.D. Besides, in data set [1] (1 h p.i., listed as [^111In]In-DOTA-PEG-Tz), the Excretion entry is “above 90 % I.D”. In data set [2], the “in vivo stability / metabolization (urine HPLC)” value was “overall low degree of metabolization”.

`CC(C)C[C@H](NC(=O)C[C@H](O)[C@H](CC(C)C)NC(=O)[C@H](Cc1c[nH]cn1)NC(=O)CNC(=O)[C@@H](NC(=O)[C@H](C)NC(=O)[C@H](Cc1c[nH]c2ccccc12)NC(=O)[C@H](CCC(N)=O)NC(=O)[C@@H](Cc1ccccc1)NC(=O)CCOCCOCCOCCOCCNC(=O)OC1CCCC2=CNN=C(c3ccc(CNC(=O)CN4CCN(CC(=O)O)CCN(CC(=O)O)CCN(CC(=O)O)CC4)cc3)C2CC1)C(C)C)C(N)=O` (some centres unmarked) [[111In]In-DOTA-Tz-TCO-PEG4-AR, metal not drawn]: the tissue uptake at 1 h in the data set “in vivo” (blood) was 1.2 ± 0.4 %ID/g; in the data set “in vivo” (bone) it was 0.5 ± 0.1 %ID/g; in “in vivo” (heart), 0.5 ± 0.3 %ID/g; in “in vivo” (intestine), 1.09 ± 0.08 %ID/g; in the data set “in vivo” (kidney), 3.7 ± 1.1 %ID/g; in the data set “in vivo” (liver) it was 0.74 ± 0.06 %ID/g. The tissue uptake at 1 h was determined as 0.7 ± 0.2 %ID/g in the data set “in vivo” (lung); 0.3 ± 0.11 %ID/g in the data set “in vivo” (muscle); 0.4 ± 0.1 %ID/g in the data set “in vivo” (spleen); 0.9 ± 0.2 %ID/g in the data set “in vivo” (stomach); 2.5 ± 0.7 %ID/g in the data set “in vivo” (tumour). The “stability in CCM” value in data set [3] was “excellent stabilities in CCM, with no degradation issues”.

In the case of `O=C([O-])CN1CCN(CC(=O)[O-])CCN(C(CCC(=O)NCc2ccc(-c3nncnn3)cc2)C(=O)[O-])CCN(CC(=O)[O-])CC1.[111In+3]` (centres unmarked) [[111In]In-DOTAGA-Tz], in data set [1] (15 min p.i.), the “Biodistribution: Blood” value turned out to be 3.2 ± 0.7 % I.D./g, the “Biodistribution: Bone” value is reported as 1.2 ± 0.2 % I.D./g, the “Biodistribution: Heart” value was 0.9 ± 0.2 % I.D./g and the “Biodistribution: Intestine” value stood at 0.4 ± 0.1 % I.D./g. Besides, in data set [1] (15 min p.i.), the “Biodistribution: Kidney” value is 7.2 ± 0.4 % I.D./g, the “Biodistribution: Liver” value worked out at 1.6 ± 0.4 % I.D./g, the “Biodistribution: Lung” value was found to be 1.9 ± 0.4 % I.D./g and the “Biodistribution: Muscle” value worked out at 0.9 ± 0.2 % I.D./g. In data set [1] (15 min p.i.), the “Biodistribution: Pancreas” value amounted to 0.6 ± 0.1 % I.D./g, the “Biodistribution: Spleen” value amounted to 0.6 ± 0.1 % I.D./g, the “Biodistribution: Stomach” value is reported as 0.6 ± 0.3 % I.D./g and the Excretion worked out at 62.7 ± 1.5 % I.D. In data set [1] (1 h p.i.), the “Biodistribution: Blood” value is 1.1 ± 0.3 % I.D./g, the “Biodistribution: Bone” value stood at 0.5 ± 0.1 % I.D./g, the “Biodistribution: Heart” value is on record as 0.4 ± 0.1 % I.D./g and the “Biodistribution: Intestine” value was found to be 0.26 ± 0.09 % I.D./g. In data set [1] (1 h p.i.), the “Biodistribution: Kidney” value amounted to 3.6 ± 1.0 % I.D./g, the “Biodistribution: Liver” value turned out to be 1.0 ± 0.3 % I.D./g, the “Biodistribution: Lung” value came to 0.8 ± 0.2 % I.D./g and the “Biodistribution: Muscle” value stood at 0.27 ± 0.07 % I.D./g. In addition, in data set [1] (1 h p.i.), the “Biodistribution: Pancreas” value came to 0.3 ± 0.1 % I.D./g, the “Biodistribution: Spleen” value is 0.3 ± 0.1 % I.D./g, the “Biodistribution: Stomach” value is given as 0.3 ± 0.2 % I.D./g and the Excretion is listed as 81.5 ± 5.1 % I.D. Also, the “Biodistribution: Kidney” value in data set [1] (1 h p.i., listed as [^111In]In-DOTAGA-Tz) amounted to 3.6 ± 1 % I.D./g. Also, the “log Po/w” value in data set [4] is listed as −3.44 ± 0.29. Moreover, the “stability in PBS” value in data set [5] (PBS, 24 h at 37°C) is reported as over 85%. In data set [5] (cell culture media, 37°C, after 24 h), the “level of degradation in CCM” value was determined as 70%. The “stability in CCM” value in data set [5] (cell culture media, 37°C, first 4 h of incubation) is “very good stability”. Besides, the “stability in HS” value in data set [5] (human serum, 37°C, 24 h of incubation) is “almost completely degraded”. The “compound degraded in HS” value in data set [5] (human serum, 37°C, after 4 h of incubation) was 30%. Further, the “stability in HS” value in data set [5] (human serum, 37°C, up to 2 h of incubation) is given as “very good”. The “in vivo stability / metabolization (urine HPLC)” value in data set [2] is “overall low degree of metabolization”.
